Measured values: publication PMC3791872 (Bioscience Reports, 2013)
Like-named read-outs stand apart in the source and are kept apart here.

Columns and labels:
Mcm2-7 = target: T1, Mcm2-7; experiment: Mcm2-7 helicase (DNA unwinding) assay; assay type: biochemical, Saccharomyces cerevisiae; conditions: for IC50: DNA unwinding
T1 construct: made in house; host or cells: baculovirus-infected insect cells

Mcm467 = target: T2, Mcm467 (Saccharomyces cerevisiae, UniProt P30665+P38132+P53091); experiment: Mcm467 helicase (DNA unwinding) assay; assay type: biochemical; conditions: for IC50: DNA unwinding
T2 construct: made in house; host or cells: baculovirus-infected insect cells
T2 sequence (P30665 whole entry): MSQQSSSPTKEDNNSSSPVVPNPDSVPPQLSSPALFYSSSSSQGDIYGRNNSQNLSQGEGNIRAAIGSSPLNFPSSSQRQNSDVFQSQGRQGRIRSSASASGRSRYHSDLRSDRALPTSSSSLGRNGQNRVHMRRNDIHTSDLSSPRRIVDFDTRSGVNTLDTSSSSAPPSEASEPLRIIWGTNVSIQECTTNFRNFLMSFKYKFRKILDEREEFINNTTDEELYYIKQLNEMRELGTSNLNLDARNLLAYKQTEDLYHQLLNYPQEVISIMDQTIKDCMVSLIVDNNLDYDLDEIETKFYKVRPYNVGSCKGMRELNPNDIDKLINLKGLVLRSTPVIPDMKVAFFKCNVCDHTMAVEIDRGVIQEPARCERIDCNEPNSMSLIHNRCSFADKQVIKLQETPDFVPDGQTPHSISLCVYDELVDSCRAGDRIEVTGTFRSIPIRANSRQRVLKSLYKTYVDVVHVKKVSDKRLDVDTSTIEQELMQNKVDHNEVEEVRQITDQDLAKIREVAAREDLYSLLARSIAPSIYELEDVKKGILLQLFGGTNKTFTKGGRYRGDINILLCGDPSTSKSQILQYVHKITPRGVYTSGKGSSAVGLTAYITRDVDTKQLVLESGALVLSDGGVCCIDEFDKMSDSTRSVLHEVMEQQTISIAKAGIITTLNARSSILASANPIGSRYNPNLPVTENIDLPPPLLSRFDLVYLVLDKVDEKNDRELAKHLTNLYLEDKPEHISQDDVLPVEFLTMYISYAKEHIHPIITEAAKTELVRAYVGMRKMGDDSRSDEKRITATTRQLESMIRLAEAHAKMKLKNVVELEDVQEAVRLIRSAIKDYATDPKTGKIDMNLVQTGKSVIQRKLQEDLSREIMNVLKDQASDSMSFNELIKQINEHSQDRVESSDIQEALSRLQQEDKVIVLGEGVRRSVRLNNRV
T2 sequence (P53091 whole entry): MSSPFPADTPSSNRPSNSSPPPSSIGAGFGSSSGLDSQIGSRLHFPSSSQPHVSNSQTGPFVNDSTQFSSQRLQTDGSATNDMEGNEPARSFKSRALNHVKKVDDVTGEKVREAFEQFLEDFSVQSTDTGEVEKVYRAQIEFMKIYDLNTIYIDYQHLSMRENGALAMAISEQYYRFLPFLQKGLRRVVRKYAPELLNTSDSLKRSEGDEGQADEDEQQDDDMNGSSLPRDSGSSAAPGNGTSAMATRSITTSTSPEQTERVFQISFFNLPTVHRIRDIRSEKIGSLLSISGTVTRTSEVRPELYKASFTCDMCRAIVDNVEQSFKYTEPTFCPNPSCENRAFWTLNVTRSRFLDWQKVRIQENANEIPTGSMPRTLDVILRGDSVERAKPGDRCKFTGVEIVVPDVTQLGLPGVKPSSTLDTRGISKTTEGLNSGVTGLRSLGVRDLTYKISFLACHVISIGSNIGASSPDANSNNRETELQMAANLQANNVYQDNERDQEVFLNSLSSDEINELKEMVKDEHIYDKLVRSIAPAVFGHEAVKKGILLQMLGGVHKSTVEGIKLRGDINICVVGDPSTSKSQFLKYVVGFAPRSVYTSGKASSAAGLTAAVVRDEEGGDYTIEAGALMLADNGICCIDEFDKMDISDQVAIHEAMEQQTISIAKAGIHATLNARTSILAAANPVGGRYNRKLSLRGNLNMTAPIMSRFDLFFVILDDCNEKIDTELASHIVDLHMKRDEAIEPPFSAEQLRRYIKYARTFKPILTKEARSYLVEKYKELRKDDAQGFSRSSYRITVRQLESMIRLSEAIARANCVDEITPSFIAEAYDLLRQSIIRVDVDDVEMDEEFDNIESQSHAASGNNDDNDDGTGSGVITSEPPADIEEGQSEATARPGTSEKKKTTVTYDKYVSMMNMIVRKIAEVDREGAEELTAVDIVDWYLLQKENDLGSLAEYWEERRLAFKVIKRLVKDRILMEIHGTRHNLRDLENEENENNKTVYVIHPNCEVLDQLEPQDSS
T2 sequence (P38132 whole entry): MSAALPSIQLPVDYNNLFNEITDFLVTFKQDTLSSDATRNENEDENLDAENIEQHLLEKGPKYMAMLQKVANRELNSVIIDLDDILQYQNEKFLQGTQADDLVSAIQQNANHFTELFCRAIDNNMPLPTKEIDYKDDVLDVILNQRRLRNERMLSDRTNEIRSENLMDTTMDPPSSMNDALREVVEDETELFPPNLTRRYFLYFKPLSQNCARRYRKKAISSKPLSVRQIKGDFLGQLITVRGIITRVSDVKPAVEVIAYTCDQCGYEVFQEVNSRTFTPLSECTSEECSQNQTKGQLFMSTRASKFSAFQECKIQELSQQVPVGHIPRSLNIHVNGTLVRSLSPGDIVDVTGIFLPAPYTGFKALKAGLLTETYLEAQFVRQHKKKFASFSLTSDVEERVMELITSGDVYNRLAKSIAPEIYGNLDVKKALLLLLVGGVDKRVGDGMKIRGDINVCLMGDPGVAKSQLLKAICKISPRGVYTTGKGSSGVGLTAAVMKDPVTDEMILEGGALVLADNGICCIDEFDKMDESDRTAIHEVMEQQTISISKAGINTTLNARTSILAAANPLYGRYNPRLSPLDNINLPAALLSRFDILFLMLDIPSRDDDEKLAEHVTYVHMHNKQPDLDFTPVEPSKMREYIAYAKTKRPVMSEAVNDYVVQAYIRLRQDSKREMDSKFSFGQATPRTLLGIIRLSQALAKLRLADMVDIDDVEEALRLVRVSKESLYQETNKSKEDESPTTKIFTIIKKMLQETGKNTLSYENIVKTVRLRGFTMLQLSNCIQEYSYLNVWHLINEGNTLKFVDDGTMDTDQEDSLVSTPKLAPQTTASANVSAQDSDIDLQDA

[1] = target: SV40 large TAg (T-antigen) (Simian virus 40, UniProt P03070); experiment: biochemical; set-up: species or system SV40 (simian virus 40); conditions: for IC50: DNA unwinding
Chain of SV40 large TAg (T-antigen) (P03070 whole entry, looked up): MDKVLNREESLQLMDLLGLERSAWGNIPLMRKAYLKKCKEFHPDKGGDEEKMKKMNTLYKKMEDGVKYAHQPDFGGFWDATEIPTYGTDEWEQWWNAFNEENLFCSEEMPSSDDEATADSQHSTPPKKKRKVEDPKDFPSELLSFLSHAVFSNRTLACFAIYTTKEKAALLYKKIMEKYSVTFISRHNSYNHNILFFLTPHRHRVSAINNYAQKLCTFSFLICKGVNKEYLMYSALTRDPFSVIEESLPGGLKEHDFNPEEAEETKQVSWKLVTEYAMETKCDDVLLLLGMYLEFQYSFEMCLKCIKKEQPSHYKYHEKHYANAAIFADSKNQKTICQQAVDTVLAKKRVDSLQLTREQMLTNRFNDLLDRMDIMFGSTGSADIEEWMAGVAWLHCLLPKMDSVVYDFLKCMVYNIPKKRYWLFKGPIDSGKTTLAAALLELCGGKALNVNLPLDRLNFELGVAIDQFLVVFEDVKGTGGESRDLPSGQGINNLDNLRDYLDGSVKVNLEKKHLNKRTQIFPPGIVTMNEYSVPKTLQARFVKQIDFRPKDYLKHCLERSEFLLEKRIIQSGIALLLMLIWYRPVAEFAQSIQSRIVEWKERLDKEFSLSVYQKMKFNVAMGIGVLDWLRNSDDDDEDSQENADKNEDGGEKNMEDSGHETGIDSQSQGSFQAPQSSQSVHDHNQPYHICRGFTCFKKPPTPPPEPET

[2] = test system: S. cerevisiae ∆erg6 (UPY675); experiment: Yeast growth inhibition, 96-well assay, ∆erg6 strain; assay type: cell-based, Saccharomyces cerevisiae; conditions: for IC50: Saccharomyces cerevisiae, ∆erg6 strain, growth over 24 h, read-out: IC50 Yeast
pUC19 = experiment: DNA intercalation assay (Topo I-relaxed plasmid); assay type: biochemical; conditions: 1 mM inhibitor added after plasmid relaxation (Figure 3C)
Source text: To examine this model, we tested our inhibitors in a standard topoisomerase assay. The rationale of this assay is that intercalating compounds will introduce supercoils into a fully relaxed plasmid. Topo I will remove these introduced supercoils, but after quenching and gel electrophoresis the intercalator will diffuse away and produce a detectable compensatory supercoiling increase.

RPE-hTERT cells = experiment: Human cell viability, MTS method; assay type: cell-based; conditions: Homo sapiens, 48 h, value (95% CI)
Description: Ciproﬂoxacin is an inhibitor of the Mcm2-7 […]
The viability of human cells was assayed using the MTS method
[1]. Brieﬂy, 1 ×10^5 cells of the human non-tumour cell line RPE-hTERT were plated into each well of a 96-well plate and grown in DMEM: F12 containing 10 % (v/v) FBS in 5 % (v/v) CO2 at 37 ◦ C. The next day, the indicated compounds were titrated into media such that the ﬁnal concentration contained 1 % (v/v)
DMSO. As a negative control, media were also prepared that contained 1 % DMSO but lacked compound. After 48 h, the media was removed and replaced with DMEM lacking phenol red but containing Cell Titer 96 Aqueous One Solution Cell Proliferation
Assay (Promega). After 1 h, the A490 nm was measured using a BioRad iMark Microplate Reader (Hercules). Final data reﬂect the average and standard deviation (S.D.) of three replicates at each compound concentration. […]

DnaB = DnaB (Escherichia coli, UniProt P0ACB0); experiment: DnaB helicase assay; assay type: biochemical; conditions: 1 mM, Figure S3
Chain of DnaB (P0ACB0 whole entry, the tested form may be a part): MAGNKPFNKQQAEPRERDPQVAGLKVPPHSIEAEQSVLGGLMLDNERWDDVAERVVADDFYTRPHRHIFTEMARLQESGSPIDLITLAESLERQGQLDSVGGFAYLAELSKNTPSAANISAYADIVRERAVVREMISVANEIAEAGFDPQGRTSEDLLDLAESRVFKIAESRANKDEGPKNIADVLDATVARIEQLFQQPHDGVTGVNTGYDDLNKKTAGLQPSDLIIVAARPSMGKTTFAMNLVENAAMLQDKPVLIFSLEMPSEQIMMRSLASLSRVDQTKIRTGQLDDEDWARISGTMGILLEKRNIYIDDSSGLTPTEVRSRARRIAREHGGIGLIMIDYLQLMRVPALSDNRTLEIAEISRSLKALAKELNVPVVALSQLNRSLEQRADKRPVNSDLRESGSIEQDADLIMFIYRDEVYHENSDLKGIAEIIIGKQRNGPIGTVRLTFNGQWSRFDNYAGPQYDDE
Description: (§1) Helicase assays were performed essentially as described. Synthetic replication forks were prepared by annealing oligos 233 and 235 [IDT (Coralville), oligo 233 5′(T)40[…]; oligo 235 5′ […](T)40] and then filling in the recessed 3′-end with [α32P]dATP and unlabelled dNTPs using Klenow Fragment. Briefly, reactions ([…]) were performed in 1× helicase assay buffer [20 mM Tris/HCl (pH 7.5), 10 mM MgOAc, 20% (v/v) glycerol, 100 μM EDTA and 5 mM DTT (dithiothreitol)] and contained a final concentration of 1 nM fork substrate, 5 mM ATP, 40 mM creatine phosphate, […] creatine kinase, 33 μg/ml BSA. Reactions containing Mcm2-7 and Mcm467 were supplemented with 200 mM potassium glutamate. Reactions containing SsoMcm were incubated at 65°C, those containing T4 gp41 were incubated for 30 min at 37°C, and all other reactions were incubated at 37°C for 1 h. The products were separated by 10% (w/v) native PAGE, the resulting gels dried and the radioactivity quantified using a Fuji FLA-5100 phosphoimager. Irrespective of the protein used, all helicase assays contained equal molar helicase concentrations (100 nM, assuming in all cases that the active helicase form is hexameric). Steady-state ATP hydrolysis was assayed as published. In short, reactions were set up essentially as in the helicase assay, with minor exceptions. A non-radiolabelled DNA fork was used, helicase concentration was 100 nM (hexamer) the total ATP concentration was 500 μM and included ~0.5 μCi of [α32P]ATP, and the ATP regeneration system was omitted. Reactions were incubated for 1 h at 37°C and stopped by the addition of SDS. ATP was separated from ADP by PEI (polyethyleneimine) thin layer chromatography, and the ratio of ATP:ADP was quantified using a Fuji FLA-5100 phosphoimager. Based on our prior work, conditions were established to ensure that the results shown are within the linear range of the assay. Protein–ssDNA binding was determined with a double filter-binding assay using an ssDNA probe (oligo 826, 5′[…]) that was 5′-radiolabelled using T4 polynucleotide kinase and [γ32P]ATP [16]. For the double filter-binding assay, the helicase concentration was 150 nM (hexamer) and the ssDNA concentration was 4 nM. For all biochemical assays, helicases were preincubated with inhibitors for 20 min at 37°C unless otherwise indicated. […]
(§2) against different helicases
(§3) Representative helicase activity assays in the presence of the indicated inhibitor were tested, quantiﬁed and standardized as described in the legend to F igures 2 (A) and (B). All helicases were assayed at 100 nM
(§4) ﬁnal concentration (hexamer) with inhibitor preincubation prior to ATP […]
(§5) F igure S3 Ciproﬂoxacin poor ly inhibits hexameric helicases un- […]
(§6) All inhibitors were used at 1 mM ﬁnal concentration. […]

T4 gp41 = target: T3, T4 gp41 (Enterobacteria phage T4, UniProt P04530); experiment: T4 gp41 helicase assay; assay type: biochemical; conditions: 1 mM, Figure S3
T3 sequence (P04530 1-475): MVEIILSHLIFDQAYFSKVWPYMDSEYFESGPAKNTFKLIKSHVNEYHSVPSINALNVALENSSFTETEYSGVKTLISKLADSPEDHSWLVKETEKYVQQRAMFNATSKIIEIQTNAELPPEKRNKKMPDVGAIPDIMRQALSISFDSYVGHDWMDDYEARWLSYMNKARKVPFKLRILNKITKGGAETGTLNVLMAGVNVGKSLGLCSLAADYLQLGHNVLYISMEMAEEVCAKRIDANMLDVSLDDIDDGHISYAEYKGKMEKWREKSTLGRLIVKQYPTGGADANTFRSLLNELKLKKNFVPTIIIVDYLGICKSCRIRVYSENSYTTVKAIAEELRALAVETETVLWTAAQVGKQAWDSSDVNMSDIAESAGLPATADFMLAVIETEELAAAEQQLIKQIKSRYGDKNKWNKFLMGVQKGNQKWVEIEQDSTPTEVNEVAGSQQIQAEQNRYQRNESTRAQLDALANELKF
Description: as §1, §2, §3, §4, §5, §6

[3] = 100 nM hexamer, inhibitor preincubation, value (95% CI), read-out: IC50 Mcm2-7
[4] = 100 nM hexamer, inhibitor preincubation, value (95% CI), read-out: IC50 Mcm467
[5] = 100 nM hexamer, inhibitor preincubation, […], read-out: IC50 T-antigen
[6] = any concentration tested, results not shown

Cc1ccc(-c2cc(-c3ccccc3)nc(N3CCNCC3)n2)cc1 [compound 388612]
IC50 (Mcm2-7; [3]): 396 µM
IC50 (Mcm467; [4]): 345 µM
IC50 [1, 5]: 126 µM
IC50 ([2]; insufficient data for 95% CI): < 0.01 µM
DNA intercalation (pUC19): extensive DNA intercalation

c1ccc(Nc2nc(Nc3ccccc3)nc(N3CCNCC3)n2)cc1 [compound 924384]
IC50 (Mcm2-7; [3]): 115 µM
IC50 (Mcm467; [4]): 246 µM
IC50 [1, 5]: 70 µM
IC50 ([2]; value (95% CI)): 93 µM
IC50 (RPE-hTERT cells): ~10 µM
DNA intercalation (pUC19): extensive DNA intercalation
inhibition of DnaB helicase (DnaB): nearly complete inhibition
inhibition of T4 gp41 helicase (T4 gp41): nearly complete inhibition

CCn1cc(C(=O)O)c(=O)c2ccc(C)nc21 [naladixic acid, reference compound]
effect on Mcm2-7 helicase activity (Mcm2-7; [6]): essentially no effect
effect on Mcm467 helicase activity (Mcm467; [6]): essentially no effect
effect on TAg helicase activity [1, 6]: essentially no effect

CC1COc2c(N3CCN(C)CC3)c(F)cc3c(=O)c(C(=O)O)cn1c23 (centres unmarked) [ofloxacin, reference compound]
IC50 (Mcm2-7; 100 nM complex, read-out: IC50 Mcm2-7 helicase activity): 4170 µM
IC50 (Mcm467; 100 nM complex, read-out: IC50 Mcm467 helicase activity): 5290 µM
IC50 ([1]; 100 nM complex, read-out: IC50 TAg helicase activity): > 20000 µM
growth response of ∆erg6 yeast ([2]; Figure 4A): demonstrable growth sensitivity
